The values below come from US20240041854A1, “COLD MEDICINE AND ANTIVIRAL MEDICINE” (OTSUKA PHARMACEUTICAL FACTORY, INC., priority 2020, published 2024).

Like-named read-outs stand apart in the source and are kept apart here.

What all share (type): cell-based
For experiment [1], the system named is human coronavirus HCoV-229E. Set-up: unit not given here. As to conditions: MRC-5 cells, qPCR.
Experiment [2] deals with human coronavirus OC43 (ATCC VR1588). Put plainly: Pharmacological Test 2: OC43 infection of HCT-8 host cells, virus RNA quantified by RT-qPCR. Further details: unit not given here. The settings on record: HCT-8 cells. From the text:
Compound X described above was used as the test compound. […] Comparative Compound 2 used herein was chloroquine phosphate, which has temporarily been approved by the US Food and Drug Administration (FDA) for emergency use in patients with new coronavirus infection.
(Real-time PCR tracks product formation cycle by cycle.)

The test system of experiment [3] is SARS-CoV-2 (hCoV-19/Germany/BY-ChVir-929/2020). Put plainly: Pharmacological Test 3: SARS-CoV-2 infection of Vero E6 host cells, virus amount in culture supernatant by qPCR (Ct value). As to conditions: for Ct value (average value): Vero E6 cells, SARS-CoV-2, culture supernatant. As for the experimental part:
Compound X described above was used as the test compound. Vero E6 (ATCC CRL1586) was used as a host cell, and this was cultured on a 96-well plate until a monolayer sheet was obtained. Next, the medium was removed, 50 μL of a mixed suspension medium of SARS-CoV-2 (hCoV-19/Germany/BY-ChVir-929/2020) and a predetermined dose of the test compound was added, and the resultant was allowed to stand at 37° C. for 1 hour. The virus concentration was 150 PFU/well. Subsequently, the medium was removed, and the cells were washed with PBS. Then, a new medium mixed with the same dose of the test compound as before was added, and the cells were cultured at 37° C. overnight. After culturing, the virus amount in the culture supernatant was quantified by qPCR. As the primers and probe, the new coronavirus N1 protein-specific primers and probe specified by the Centers for Disease Control and Prevention (CDC) were used, and the conditions were also in accordance with the conditions specified by the CDC. The number of PCR cycles (Ct value) until the signal intensity of the PCR product reached a predetermined intensity (threshold value) was determined.

In the case of `NC(=O)c1nccnc1O` [Comparative compound, 3-Hydroxypyrazine-2-carboxamide, reference compound], the Virus amount is 1.E+07 in experiment [1] (1.6 μM test substance); 7.E+06 in experiment [1] (3.1 μM test substance); 9.E+06 in experiment [1] (6.3 μM test substance); 5.E+06 in experiment [1] (12.5 μM test substance); 2.E+07 in experiment [1] (25 μM test substance); 2.E+07 in experiment [1] (50 μM test substance). The compound further gave a Virus amount in experiment [1] (100 μM test substance) of 2.E+07.

Take `Fc1ccc(-c2nc(-c3ccc(OCc4ncc(C(F)(F)F)cc4F)cc3Cl)c(Cl)[nH]2)cn1` [Compound Z, 2-[[3-chloro-4-(5-chloro-2-(6-fluoropyridin-3-yl)-1H-imidazol-4-yl)phenoxy]methyl]-3-fluoro-5-(trifluoromethyl)pyridine]: the Virus amount turned out to be 3.E+08 in experiment [1] (0.78 μM test substance); 1.E+08 in experiment [1] (1.58 μM test substance); 3.E+08 in experiment [1] (3.1 μM test substance); 3.E+08 in experiment [1] (6.3 μM test substance); 8.E+07 in experiment [1] (12.5 μM test substance); 2.E+05 in experiment [1] (25 μM test substance). In addition, the Virus amount in experiment [1] (50 μM test substance) worked out at 4.E+04.

As to `CCN(CC)CCCC(C)Nc1ccnc2cc(Cl)ccc12` (stereo not drawn) [compound 2, chloroquine phosphate], the Virus amount in experiment [2] (0.78 μM test compound) is reported as 2.E+08; in experiment [2] (1.58 μM test compound), 3.E+08; in experiment [2] (3.1 μM test compound) it was 4.E+08; in experiment [2] (6.3 μM test compound), 6.E+08; in experiment [2] (12.5 μM test compound), 6.E+07; in experiment [2] (25 μM test compound), 3.E+06. The Virus amount in experiment [2] (50 μM test compound) came out at 9.E+06.

Turning to `COc1cc(OCc2ncc(C(F)(F)F)cc2F)ccc1-c1nc(-c2ccc(F)nc2)[nH]c1Br` [Compound Y, 2-[[4-(5-bromo-2-(6-fluoropyridin-3-yl)-1H-imidazol-4-yl)-3-methoxyphenoxy]methyl]-3-fluoro-5-(trifluoromethyl)pyridine], the Virus amount was determined as 2.E+08 in experiment [1] (0.78 μM test substance); 1.E+08 in experiment [1] (1.6 μM test substance); 1.E+08 in experiment [1] (3.1 μM test substance); 1.E+08 in experiment [1] (6.2 μM test substance); 8.E+07 in experiment [1] (12.5 μM test substance); 4.E+04 in experiment [1] (25 μM test substance). Moreover, the Virus amount in experiment [1] (50 μM test substance) turned out to be 3.E+04.

`COc1cc(OCc2ncc(C(F)(F)F)cc2F)ccc1-c1nc(-c2ccc(F)nc2)[nH]c1Cl` [Compound X, 2-[[4-(5-chloro-2-(6-fluoropyridin-3-yl)-1H-imidazol-4-yl)-3-methoxyphenoxy]methyl]-3-fluoro-5-(trifluoromethyl) pyridine]: the Virus amount in experiment [1] (0.78 μM test substance) was 9.E+06; in experiment [1] (1.58 μM test substance), 1.E+07; in experiment [1] (3.1 μM test substance), 5.E+06; in experiment [1] (6.3 μM test substance), 5.E+06; in experiment [1] (12.5 μM test substance), 1.E+06; in experiment [1] (25 μM test substance), 4.E+02. For the same compound, the Virus amount in experiment [1] (50 μM test substance) turned out to be 3.E+03; in experiment [2] (0.78 μM test compound), 3.E+08; in experiment [2] (1.6 μM test compound), 5.E+08; in experiment [2] (3.1 μM test compound), 6.E+08; in experiment [2] (6.2 μM test compound), 1.E+08; in experiment [2] (12.5 μM test compound) it was 2.E+05. Moreover, the Virus amount in experiment [2] (25 μM test compound) and in experiment [2] (50 μM test compound) was 1.E+05 each time. Also, the “Ct value (average value)” value was found to be 21.0 in experiment [3] (0.78 μM test compound); 21.1 in experiment [3] (1.56 μM test compound); 20.9 in experiment [3] (3.13 μM test compound); 21.7 in experiment [3] (6.25 μM test compound); 24.7 in experiment [3] (12.50 μM test compound); 24.8 in experiment [3] (25.00 μM test compound). In addition, in experiment [3] (50.00 μM test compound), the “Ct value (average value)” value was found to be 24.5. Moreover, the “infection-suppressing effect on SARS-CoV-2” value in experiment [3] (in words, Vero E6) is on record as “showed an infection-suppressing effect on SARS-CoV-2”.

For the compound `NC(=O)c1nc(F)c[nH]c1=O` [compound 1, favipiravir], the Virus amount was 4.E+08 in experiment [2] (0.78 μM test compound); 3.E+08 in experiment [2] (1.58 μM test compound); 3.E+08 in experiment [2] (3.1 μM test compound); 3.E+08 in experiment [2] (6.3 μM test compound); 2.E+08 in experiment [2] (12.5 μM test compound); 2.E+08 in experiment [2] (25 μM test compound). Also, the Virus amount in experiment [2] (50 μM test compound) amounted to 6.E+08.
